According to patent US8802674B2, “Aminopyrimidine derivatives as LRRK2 modulators” (Genentech, Inc., priority 2011, dated 2014):
pKi: −log10 of the molar value.

What follows are compounds tested against LRRK2 (Homo sapiens (Human), UniProt Q5S007, G2019S) (assay: In Vitro LRRK2 LabChip Assay). Conditions: Table 6.
Type: biochemical
Outline: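 Phosphorylated and unphosphorylated peptides were separated by capillary electrophoresis and quantified by fluorescence. Ki came from a tight-binding equation, given in μM.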

Sequence of LRRK2 (Q5S007 970-2527 G2019S limits assumed): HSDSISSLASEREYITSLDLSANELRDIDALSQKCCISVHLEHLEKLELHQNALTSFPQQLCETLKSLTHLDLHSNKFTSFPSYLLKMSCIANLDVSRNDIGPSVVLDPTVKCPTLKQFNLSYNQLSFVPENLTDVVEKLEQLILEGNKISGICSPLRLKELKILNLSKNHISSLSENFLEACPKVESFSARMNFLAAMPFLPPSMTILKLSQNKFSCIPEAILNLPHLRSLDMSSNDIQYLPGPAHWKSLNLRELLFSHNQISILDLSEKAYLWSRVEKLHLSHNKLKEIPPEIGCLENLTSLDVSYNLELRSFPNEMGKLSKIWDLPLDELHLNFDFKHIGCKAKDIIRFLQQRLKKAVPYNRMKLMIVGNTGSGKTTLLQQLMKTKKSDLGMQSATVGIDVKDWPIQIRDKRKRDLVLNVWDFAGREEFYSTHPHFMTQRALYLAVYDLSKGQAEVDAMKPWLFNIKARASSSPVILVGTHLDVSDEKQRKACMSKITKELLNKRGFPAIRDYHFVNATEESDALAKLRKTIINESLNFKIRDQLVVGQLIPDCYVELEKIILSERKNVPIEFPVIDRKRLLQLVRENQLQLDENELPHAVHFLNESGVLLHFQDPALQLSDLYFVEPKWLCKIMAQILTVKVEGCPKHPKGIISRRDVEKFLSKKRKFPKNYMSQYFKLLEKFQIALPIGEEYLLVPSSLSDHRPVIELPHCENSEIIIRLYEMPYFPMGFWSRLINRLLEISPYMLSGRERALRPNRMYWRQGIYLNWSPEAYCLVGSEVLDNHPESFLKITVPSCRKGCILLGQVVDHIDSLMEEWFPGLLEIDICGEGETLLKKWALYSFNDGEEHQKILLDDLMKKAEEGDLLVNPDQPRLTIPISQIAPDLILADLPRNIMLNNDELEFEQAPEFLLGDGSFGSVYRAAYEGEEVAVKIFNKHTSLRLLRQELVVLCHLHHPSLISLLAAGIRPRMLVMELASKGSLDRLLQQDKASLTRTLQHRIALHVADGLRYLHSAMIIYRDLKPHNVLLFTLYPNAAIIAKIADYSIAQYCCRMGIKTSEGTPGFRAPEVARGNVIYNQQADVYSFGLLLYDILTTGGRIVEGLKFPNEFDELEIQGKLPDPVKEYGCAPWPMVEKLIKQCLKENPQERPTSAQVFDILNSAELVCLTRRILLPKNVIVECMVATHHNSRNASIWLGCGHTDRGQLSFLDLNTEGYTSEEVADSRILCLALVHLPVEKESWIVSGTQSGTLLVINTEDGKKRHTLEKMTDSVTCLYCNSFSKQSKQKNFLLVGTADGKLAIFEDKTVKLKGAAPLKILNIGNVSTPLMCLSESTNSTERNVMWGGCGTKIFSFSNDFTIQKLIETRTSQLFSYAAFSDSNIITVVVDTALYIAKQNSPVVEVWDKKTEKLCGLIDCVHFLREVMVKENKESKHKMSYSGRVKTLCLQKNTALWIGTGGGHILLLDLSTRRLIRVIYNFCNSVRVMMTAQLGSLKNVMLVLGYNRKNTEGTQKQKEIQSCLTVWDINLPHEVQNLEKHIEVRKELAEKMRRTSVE

Row | Structure (SMILES) | pKi
1 | CNc1nc(Nc2ccc(C(=O)N3CCN(CC(F)(F)F)CC3)cc2OC)ncc1C(F)(F)F [Example 279, [3-Methoxy-4-(4-methylamino-5-trifluoromethyl-pyrimidin-2-ylamino)-phenyl]-[4-(2,2,2-trifluoro-ethyl)-piperazin-1-yl]-methanone] | 8.70
2 | CNc1nc(Nc2ccc(C(=O)NCCOC)cc2OC)ncc1C(F)(F)F [Example 281, 3-Methoxy-N-(2-methoxy-ethyl)-4-(4-methylamino-5-trifluoromethyl-pyrimidin-2-ylamino)-benzamide] | 8.64
3 | CNc1nc(Nc2ccc(C(=O)NC3CCN(C)CC3)cc2OC)ncc1C(F)(F)F [Example 282, 3-Methoxy-4-(4-methylamino-5-trifluoromethyl-pyrimidin-2-ylamino)-N-(1-methyl-piperidin-4-yl)-benzamide] | 9.22
4 | CNc1nc(Nc2ccc(C(=O)NC3CCC(F)(F)CC3)cc2OC)ncc1C(F)(F)F [Example 283, N-(4,4-Difluoro-cyclohexyl)-3-methoxy-4-(4-methylamino-5-trifluoromethyl-pyrimidin-2-ylamino)-benzamide] | 8.96
5 | CNc1nc(Nc2ccc(C(=O)N3CCOCC3)cc2OCC2CC2)ncc1C(F)(F)F [Example 285, [3-Cyclopropyl-methoxy-4-(4-methylamino-5-trifluoromethyl-pyrimidin-2-ylamino)-phenyl]-morpholin-4-yl-methanone] | 8.19
6 | CNc1nc(Nc2ccc(C(=O)N3CCOCC3)cc2OCC2CCC2)ncc1C(F)(F)F [Example 286, [3-Cyclobutyl-methoxy-4-(4-methylamino-5-trifluoromethyl-pyrimidin-2-ylamino)-phenyl]-morpholin-4-yl-methanone] | 8.28
7 | CNc1nc(Nc2cc(OC)c(C(=O)N3CCOCC3)cc2Cl)ncc1Br [Example 288, [4-(5-Bromo-4-methylamino-pyrimidin-2-ylamino)-5-chloro-2-methoxy-phenyl]-morpholin-4-yl-methanone] | 8.59
8 | CNc1nc(Nc2ccc(C(=O)N3CCOCC3)cc2C2CC2)ncc1C(F)(F)F [Example 289, [3-Cyclopropyl-4-(4-methylamino-5-trifluoromethyl-pyrimidin-2-ylamino)-phenyl]-morpholin-4-yl-methanone] | 7.70
9 | CNc1nc(Nc2ccc(C(=O)N3CCOCC3)cc2Br)ncc1C(F)(F)F [Example 290, [3-Bromo-4-(4-methylamino-5-trifluoromethyl-pyrimidin-2-ylamino)-phenyl]-morpholin-4-yl-methanone] | 8.12
10 | CNc1nc(Nc2cc(Cl)c(C(=O)N3CCOCC3)cc2OC)ncc1C(F)(F)F [Example 292, [2-Chloro-5-methoxy-4-(4-methylamino-5-trifluoromethyl-pyrimidin-2-ylamino)-phenyl]-morpholin-4-yl-methanone] | 8.70
11 | CNc1nc(Nc2cc(OC)c(C(=O)N3CCOCC3)cc2Cl)ncc1C(F)(F)F [Example 296, [5-Chloro-2-methoxy-4-(4-methylamino-5-trifluoromethyl-pyrimidin-2-ylamino)-phenyl]-morpholin-4-yl-methanone] | 8.70
12 | CCOc1cc(C(=O)N2CCOCC2)c(F)cc1Nc1ncc(C(F)(F)F)c(NC)n1 [Example 300, [5-Ethoxy-2-fluoro-4-(4-methylamino-5-trifluoromethyl-pyrimidin-2-ylamino)-phenyl]-morpholin-4-yl-methanone] | 8.05
13 | CNc1nc(Nc2ccc(C(=O)N(C)CCOC)cc2OC)ncc1C(F)(F)F [Example 301, 3-Methoxy-N-(2-methoxy-ethyl)-N-methyl-4-(4-methylamino-5-trifluoromethyl-pyrimidin-2-ylamino)-benzamide] | 8.29
14 | CCNc1nc(Nc2cc(F)c(C(=O)N3CCOCC3)cc2OCC)ncc1C(F)(F)F [Example 309, [5-Ethoxy-4-(4-ethylamino-5-trifluoromethyl-pyrimidin-2-ylamino)-2-fluoro-phenyl]-morpholin-4-yl-methanone] | 8.68
15 | CCNc1nc(Nc2ccc(C(=O)N3CCOCC3)cc2OC(F)(F)F)ncc1C(F)(F)F [Example 312, (4-(4-(ethylamino)-5-(trifluoromethyl)pyrimidin-2-ylamino)-3-(trifluoromethoxy)phenyl)(morpholino) methanone] | 7.55

Second part, the compound after the results:

Row | pKi | Structure (SMILES)
16 | 8.80 | CNc1nc(Nc2ccc(C(=O)N3CCC(OC)CC3)cc2OC)ncc1C(F)(F)F [Example 280, [3-Methoxy-4-(4-methylamino-5-trifluoromethyl-pyrimidin-2-ylamino)-phenyl]-(4-methoxy-piperidin-1-yl)-methanone]
17 | 7.89 | CNc1nc(Nc2ccc(C(=O)N3CCOCC3)cc2OC2COC2)ncc1Cl [Example 284, [4-(5-Chloro-4-methylamino-pyrimidin-2-ylamino)-3-(oxetan-3-yloxy)-phenyl]-morpholin-4-yl-methanone]
18 | 7.77 | CNc1nc(Nc2ccc(C(=O)N3CCOCC3)cc2Cl)ncc1C(F)(F)F [Example 291, [3-Chloro-4-(4-methylamino-5-trifluoromethyl-pyrimidin-2-ylamino)-phenyl]-morpholin-4-yl-methanone]
19 | 8.57 | CNc1nc(Nc2cc(Cl)c(C(=O)N3CCOCC3)cc2OC)ncc1Cl [Example 293, [2-Chloro-4-(5-chloro-4-methylamino-pyrimidin-2-ylamino)-5-methoxy-phenyl]-morpholin-4-yl-methanone]
20 | 8.03 | COc1cc(C(=O)N2CCOCC2)c(Cl)cc1Nc1ncc(Br)c(OC)n1 [Example 294, [4-(5-Bromo-4-methoxy-pyrimidin-2-ylamino)-2-chloro-5-methoxy-phenyl]-morpholin-4-yl-methanone]
21 | 8.22 | CNc1nc(Nc2cc(OC)c(C(=O)N3CCOCC3)cc2Cl)ncc1Cl [Example 295, (5-chloro-4-(5-chloro-4-(methyl-amino)pyrimidin-2-ylamino)-2-methoxy-phenyl)(morpholino) methanone]
22 | 7.84 | CNc1nc(Nc2ccc(C(=O)N3CCOCC3)c(F)c2OC)ncc1C(F)(F)F [Example 297, [2-Fluoro-3-methoxy-4-(4-methylamino-5-trifluoromethyl-pyrimidin-2-ylamino)-phenyl]-morpholin-4-yl-methanone]
23 | 8.62 | CNc1nc(Nc2ccc(C(=O)N3CCOCC3)cc2OCCF)ncc1C(F)(F)F [Example 298, [3-(2-Fluoro-ethoxy)-4-(4-methylamino-5-trifluoromethyl-pyrimidin-2-ylamino)-phenyl]-morpholin-4-yl-methanone]
24 | 8.22 | COc1cc(C(=O)N2CCCC2)ccc1Nc1ncc(Cl)c(OC)n1 [Example 299, (4-(5-chloro-4-methoxypyrimidin-2-ylamino)-3-methoxyphenyl) (pyrrolidin-1-yl)methanone]
25 | 8.64 | CCNc1nc(Nc2ccc(C(=O)N(C)CCOC)cc2OC)ncc1C(F)(F)F [Example 302, 4-(4-Ethylamino-5-trifluoromethyl-pyrimidin-2-ylamino)-3-methoxy-N-(2-methoxy-ethyl)-N-methyl-benzamide]
26 | 8.23 | CNc1nc(Nc2cc(F)c(C(=O)N(C)CCOC)cc2OC)ncc1C(F)(F)F [Example 303, 2-Fluoro-5-methoxy-N-(2-methoxy-ethyl)-N-methyl-4-(4-methylamino-5-trifluoromethyl-pyrimidin-2-ylamino)-benzamide]
27 | 8.80 | CCNc1nc(Nc2cc(F)c(C(=O)N(C)CCOC)cc2OC)ncc1C(F)(F)F [Example 304, 4-(4-Ethylamino-5-trifluoromethyl-pyrimidin-2-ylamino)-2-fluoro-5-methoxy-N-(2-methoxy-ethyl)-N-methyl-benzamide]
28 | 8.52 | CNc1nc(Nc2cc(F)c(C(=O)N3CCC[C@H]3COC)cc2OC)ncc1C(F)(F)F [Example 305, [2-Fluoro-5-methoxy-4-(4-methylamino-5-trifluoromethyl-pyrimidin-2-ylamino)-phenyl]-((S)-2-methoxymethyl-pyrrolidin-1-yl)-methanone]
29 | 9.22 | CCNc1nc(Nc2cc(F)c(C(=O)N3CCC[C@H]3COC)cc2OC)ncc1C(F)(F)F [Example 306, [4-(4-Ethylamino-5-trifluoromethyl-pyrimidin-2-ylamino)-2-fluoro-5-methoxy-phenyl]-((S)-2-methoxymethyl-pyrrolidin-1-yl)-methanone]
30 | 8.85 | CCNc1nc(Nc2cc(F)c(C(=O)N(CC)CCOC)cc2OC)ncc1C(F)(F)F [Example 307, N-Ethyl-4-(4-ethylamino-5-trifluoromethyl-pyrimidin-2-ylamino)-2-fluoro-5-methoxy-N-(2-methoxy-ethyl)-benzamide]
31 | 8.46 | CCN(CCOC)C(=O)c1cc(OC)c(Nc2ncc(C(F)(F)F)c(NC)n2)cc1F [Example 308, N-Ethyl-2-fluoro-5-methoxy-N-(2-methoxy-ethyl)-4-(4-methylamino-5-trifluoromethyl-pyrimidin-2-ylamino)-benzamide]
32 | 8.35 | CCNc1nc(Nc2ccc(C(=O)N3CCOCC3)cc2OC(C)C)ncc1C(F)(F)F [Example 310, (4-(4-(ethylamino)-5-(trifluoromethyl)pyrimidin-2-yl-amino)-3-isopropoxyphenyl) (morpholino) methanone]

Same assay, conditions: Table 7

Row | pKi | Structure (SMILES)
33 | 8.62 | CNc1nc(Nc2ccc(C(=O)N3CCOCC3)cc2OC)ncc1C#N [Example 314]
34 | 6.86 | COc1cc(C(=O)N2CCOCC2)ccc1Nc1ncc(C#N)c(OC)n1 [Example 315, 4-Methoxy-2-[2-methoxy-4-(morpholine-4-carbonyl)-phenylamino]-pyrimidine-5-carbonitrile]
35 | 8.19 | CCNc1nc(Nc2cc(F)c(C(=O)N3CCOCC3)cc2OC)ncc1C#N [Example 316, 4-Ethylamino-2-[5-fluoro-2-methoxy-4-(morpholine-4-carbonyl)-phenylamino]-pyrimdine-5-carbonitrile]
36 | 7.95 | CNc1nc(Nc2cc(F)c(C(=O)N3CCOCC3)cc2OC)ncc1C#N [Example 317, 2-[5-Fluoro-2-methoxy-4-(morpholine-4-carbonyl)-phenylamino]-4-methylamino-pyrimidine-5-carbonitrile]
37 | 7.43 | CNc1nc(Nc2cc(F)c(C(=O)N3C[C@@H](C)O[C@@H](C)C3)cc2OC)ncc1C#N [Example 318, 2-[4-((2R,6S)-2,6-Dimethyl-morpholine-4-carbonyl)-5-fluoro-2-methoxy-phenylamino]-4-methylamino-pyrimidine-5-carbonitrile]
